Reference: the NIST ThermoML archive (doi:10.1021/je400056z)
± gives the expanded uncertainty stated by the source.

Assay: xn = mol fraction of the nth substance listed
Details: Liquid, Vibrating tube method

CCCCCCC [heptane] + O=C=O
Details	mass density [kg/m3]
312.02 K, 10986 kPa, x2 = 0.9496	729.05 ± 0.62
312.02 K, 12001 kPa, x2 = 0.9496	747.88 ± 0.6
312.02 K, 13001 kPa, x2 = 0.9496	763.05 ± 0.54
312.02 K, 13981 kPa, x2 = 0.9496	776.11 ± 0.5
312.02 K, 15000 kPa, x2 = 0.9496	787.02 ± 0.47
312.02 K, 16006 kPa, x2 = 0.9496	797.48 ± 0.45
312.02 K, 16997 kPa, x2 = 0.9496	806.48 ± 0.43
312.02 K, 18005 kPa, x2 = 0.9496	814.74 ± 0.41
312.02 K, 19001 kPa, x2 = 0.9496	822.53 ± 0.4
312.02 K, 19995 kPa, x2 = 0.9496	829.62 ± 0.39
312.02 K, 20996 kPa, x2 = 0.9496	836.32 ± 0.39
312.02 K, 22002 kPa, x2 = 0.9496	842.78 ± 0.38
312.02 K, 23003 kPa, x2 = 0.9496	848.74 ± 0.37
312.02 K, 24007 kPa, x2 = 0.9496	854.47 ± 0.37
312.02 K, 24361 kPa, x2 = 0.9496	856.44 ± 0.37
312.94 K, 5011 kPa, x2 = 0.3148	693.37 ± 0.29
312.94 K, 6008 kPa, x2 = 0.3148	694.74 ± 0.29
312.94 K, 7004 kPa, x2 = 0.3148	696.16 ± 0.3
312.94 K, 8002 kPa, x2 = 0.3148	697.62 ± 0.31
312.94 K, 8997 kPa, x2 = 0.3148	699.03 ± 0.31
312.94 K, 9991 kPa, x2 = 0.3148	700.6 ± 0.32
312.94 K, 11000 kPa, x2 = 0.3148	701.81 ± 0.33
312.94 K, 12009 kPa, x2 = 0.3148	703.08 ± 0.33
312.94 K, 13002 kPa, x2 = 0.3148	704.39 ± 0.34
312.94 K, 13992 kPa, x2 = 0.3148	705.63 ± 0.35
312.94 K, 15009 kPa, x2 = 0.3148	706.99 ± 0.36
312.94 K, 16009 kPa, x2 = 0.3148	708.23 ± 0.36
312.94 K, 16997 kPa, x2 = 0.3148	709.2 ± 0.37
312.94 K, 18018 kPa, x2 = 0.3148	710.45 ± 0.38
312.94 K, 19015 kPa, x2 = 0.3148	711.73 ± 0.39
312.94 K, 20006 kPa, x2 = 0.3148	712.83 ± 0.39
312.94 K, 21008 kPa, x2 = 0.3148	713.93 ± 0.4
312.94 K, 22010 kPa, x2 = 0.3148	715.06 ± 0.41
312.94 K, 23004 kPa, x2 = 0.3148	716.14 ± 0.42
312.94 K, 24017 kPa, x2 = 0.3148	717.34 ± 0.42
312.94 K, 24997 kPa, x2 = 0.3148	718.41 ± 0.44
312.98 K, 7014 kPa, x2 = 0.7514	729.2 ± 0.32
312.98 K, 8012 kPa, x2 = 0.7514	733.47 ± 0.33
312.98 K, 8996 kPa, x2 = 0.7514	737.34 ± 0.33
312.98 K, 10005 kPa, x2 = 0.7514	741.22 ± 0.33
312.98 K, 10989 kPa, x2 = 0.7514	744.88 ± 0.31
312.98 K, 12007 kPa, x2 = 0.7514	748.38 ± 0.32
312.98 K, 12994 kPa, x2 = 0.7514	751.74 ± 0.33
312.98 K, 14005 kPa, x2 = 0.7514	754.92 ± 0.34
312.98 K, 14990 kPa, x2 = 0.7514	758 ± 0.34
312.98 K, 16009 kPa, x2 = 0.7514	761.15 ± 0.35
312.98 K, 17002 kPa, x2 = 0.7514	764.01 ± 0.36
312.98 K, 17990 kPa, x2 = 0.7514	766.8 ± 0.36
312.98 K, 19008 kPa, x2 = 0.7514	769.54 ± 0.37
312.98 K, 20006 kPa, x2 = 0.7514	772.19 ± 0.37
312.98 K, 21018 kPa, x2 = 0.7514	774.69 ± 0.38
312.98 K, 21997 kPa, x2 = 0.7514	777.23 ± 0.38
312.98 K, 23004 kPa, x2 = 0.7514	779.67 ± 0.39
312.98 K, 23994 kPa, x2 = 0.7514	782.07 ± 0.4
312.98 K, 24571 kPa, x2 = 0.7514	783.46 ± 0.6
313.03 K, 5011 kPa, x2 = 0.5085	706.14 ± 0.29
313.03 K, 6005 kPa, x2 = 0.5085	708.31 ± 0.29
313.03 K, 7004 kPa, x2 = 0.5085	710.37 ± 0.3
313.03 K, 8011 kPa, x2 = 0.5085	712.42 ± 0.31
313.03 K, 8996 kPa, x2 = 0.5085	714.37 ± 0.31
313.03 K, 10001 kPa, x2 = 0.5085	716.4 ± 0.32
313.03 K, 11006 kPa, x2 = 0.5085	718.29 ± 0.32
313.03 K, 11994 kPa, x2 = 0.5085	720.05 ± 0.33
313.03 K, 13000 kPa, x2 = 0.5085	721.92 ± 0.34
313.03 K, 14002 kPa, x2 = 0.5085	723.71 ± 0.34
313.03 K, 15010 kPa, x2 = 0.5085	725.36 ± 0.35
313.03 K, 16006 kPa, x2 = 0.5085	727.16 ± 0.36
313.03 K, 17002 kPa, x2 = 0.5085	728.84 ± 0.36
313.03 K, 18023 kPa, x2 = 0.5085	730.55 ± 0.37
313.03 K, 19009 kPa, x2 = 0.5085	732.08 ± 0.37
313.03 K, 20003 kPa, x2 = 0.5085	733.69 ± 0.38
313.03 K, 21000 kPa, x2 = 0.5085	735.25 ± 0.39
313.03 K, 22016 kPa, x2 = 0.5085	736.75 ± 0.39
313.03 K, 23006 kPa, x2 = 0.5085	738.31 ± 0.4
313.03 K, 24019 kPa, x2 = 0.5085	739.74 ± 0.41
313.03 K, 25004 kPa, x2 = 0.5085	741.18 ± 0.42
313.08 K, 2007 kPa, x2 = 0.0218	670.88 ± 0.27
313.08 K, 3009 kPa, x2 = 0.0218	671.95 ± 0.28
313.08 K, 4008 kPa, x2 = 0.0218	673.02 ± 0.28
313.08 K, 5014 kPa, x2 = 0.0218	674.05 ± 0.29
313.08 K, 6010 kPa, x2 = 0.0218	675.07 ± 0.3
313.08 K, 7005 kPa, x2 = 0.0218	676.19 ± 0.31
313.08 K, 8174 kPa, x2 = 0.0218	677.13 ± 0.31
313.08 K, 9005 kPa, x2 = 0.0218	678.13 ± 0.32
313.08 K, 10008 kPa, x2 = 0.0218	679.18 ± 0.33
313.08 K, 11000 kPa, x2 = 0.0218	680.15 ± 0.34
313.08 K, 12009 kPa, x2 = 0.0218	681.11 ± 0.35
313.08 K, 13002 kPa, x2 = 0.0218	682.02 ± 0.35
313.08 K, 14006 kPa, x2 = 0.0218	683 ± 0.36
313.08 K, 15004 kPa, x2 = 0.0218	683.85 ± 0.37
313.08 K, 16007 kPa, x2 = 0.0218	684.89 ± 0.38
313.08 K, 17002 kPa, x2 = 0.0218	685.71 ± 0.39
313.08 K, 18005 kPa, x2 = 0.0218	686.44 ± 0.4
313.08 K, 19010 kPa, x2 = 0.0218	687.37 ± 0.41
313.08 K, 20009 kPa, x2 = 0.0218	688.24 ± 0.42
313.08 K, 21004 kPa, x2 = 0.0218	689.1 ± 0.42
313.08 K, 22010 kPa, x2 = 0.0218	689.97 ± 0.43
313.08 K, 23003 kPa, x2 = 0.0218	690.81 ± 0.44
313.08 K, 24007 kPa, x2 = 0.0218	691.63 ± 0.45
313.08 K, 24906 kPa, x2 = 0.0218	692.41 ± 0.46
322.85 K, 5012 kPa, x2 = 0.3148	682.49 ± 0.29
322.85 K, 6012 kPa, x2 = 0.3148	684.11 ± 0.3
322.85 K, 7008 kPa, x2 = 0.3148	685.75 ± 0.3
322.85 K, 8009 kPa, x2 = 0.3148	687.35 ± 0.31
322.85 K, 8996 kPa, x2 = 0.3148	688.86 ± 0.32
322.85 K, 10005 kPa, x2 = 0.3148	690.36 ± 0.33
322.85 K, 11012 kPa, x2 = 0.3148	691.87 ± 0.33
322.85 K, 11996 kPa, x2 = 0.3148	693.32 ± 0.34
322.85 K, 13003 kPa, x2 = 0.3148	694.75 ± 0.35
322.85 K, 14006 kPa, x2 = 0.3148	696.09 ± 0.36
322.85 K, 15010 kPa, x2 = 0.3148	697.48 ± 0.36
322.85 K, 16003 kPa, x2 = 0.3148	698.79 ± 0.37
322.85 K, 17009 kPa, x2 = 0.3148	700.14 ± 0.38
322.85 K, 18001 kPa, x2 = 0.3148	701.39 ± 0.39
322.85 K, 19012 kPa, x2 = 0.3148	702.67 ± 0.39
322.85 K, 20007 kPa, x2 = 0.3148	703.86 ± 0.4
322.85 K, 21000 kPa, x2 = 0.3148	705.12 ± 0.41
322.85 K, 22017 kPa, x2 = 0.3148	706.33 ± 0.42
322.85 K, 23010 kPa, x2 = 0.3148	707.55 ± 0.42
322.85 K, 23985 kPa, x2 = 0.3148	708.71 ± 0.43
322.85 K, 25004 kPa, x2 = 0.3148	709.93 ± 0.44
322.91 K, 8013 kPa, x2 = 0.7514	707.83 ± 0.34
322.91 K, 8994 kPa, x2 = 0.7514	712.85 ± 0.34
322.91 K, 10015 kPa, x2 = 0.7514	717.65 ± 0.35
322.91 K, 10996 kPa, x2 = 0.7514	722.08 ± 0.37
322.91 K, 12005 kPa, x2 = 0.7514	726.29 ± 0.35
322.91 K, 13025 kPa, x2 = 0.7514	730.31 ± 0.35
322.91 K, 13986 kPa, x2 = 0.7514	733.99 ± 0.35
322.91 K, 15009 kPa, x2 = 0.7514	737.66 ± 0.36
322.91 K, 16002 kPa, x2 = 0.7514	741.14 ± 0.36
322.91 K, 17007 kPa, x2 = 0.7514	744.51 ± 0.36
322.91 K, 17997 kPa, x2 = 0.7514	747.63 ± 0.36
322.91 K, 19009 kPa, x2 = 0.7514	750.74 ± 0.37
322.91 K, 20004 kPa, x2 = 0.7514	753.71 ± 0.37
322.91 K, 21008 kPa, x2 = 0.7514	756.6 ± 0.37
